Laboratory results published in publication PMC9395382 (2022).

Tests used:
[1] = tested on: d(GC)10 (DNA, duplex) GCGCGCGCGCGCGCGCGCGC; assay: fluorescent indicator displacement; details: Na+ (10 mM sodium phosphate); pH 7.0, 25 °C; EtBr displaced; DNA 20 μM bp; dye 0.5–50 μM
[2] = tested on: dsDNA (DNA, duplex) CGCGGCGTACAGTGATCTACCATGCCCTGG/CCAGGGCATGGTAGATCACTGTACGCCGCG; assay: fluorescence titration, modified McGhee-von Hippel fit; details: Na+ (10 mM sodium phosphate), pH 7.0, dye 2 μM, DNA in bp, per base
[3] = tested on: d(AT)10 (DNA, duplex) ATATATATATATATATATAT; assay: fluorescent indicator displacement; details: Na+ (10 mM sodium phosphate); pH 7.0, 25 °C; DAPI displaced; DNA 20 μM bp; dye 0.5–50 μM
[4] = tested on: dsDNA (DNA, duplex) CGCGGCGTACAGTGATCTACCATGCCCTGG/CCAGGGCATGGTAGATCACTGTACGCCGCG; assay: fluorescence enhancement; details: Na+ (10 mM sodium phosphate), pH 7.0, 25 °C, dye 2 μM, DNA 1 μM

Row | binding [1] | binding [3] | further results | Structure (SMILES)
1 | yes | yes | Kb ([2]; n = 2.5 bp per dye): 121000 M⁻¹ | CCN(CC)c1ccc(/C=C/c2sc3ccccc3[n+]2C)c(OCCCC[N+](C)(C)C)c1
2 | yes | yes | Kb ([2]; n = 2.1 bp per dye): 245000 M⁻¹ | CCN(CC)c1ccc(/C=C/c2cc[n+](C)c3ccccc23)c(OCCCC[N+](C)(C)C)c1
3 | yes | yes | Kb ([2]; n = 2.5 bp per dye): 35000 M⁻¹ | CCN(CC)c1ccc(/C=C/c2sc3ccccc3[n+]2C)cc1
4 | – | yes | Kb ([2]; n = 4.4 bp per dye): 10000 M⁻¹ | CCN(CC)c1ccc(/C=C/c2cc[n+](C)cc2)cc1
5 | – | – | binding ([4]; F/F0 60.5): yes | CCN(CC)c1ccc(/C=C/c2cc[n+](C)cc2)c(OCC[N+](C)(C)C)c1
6 | yes | yes | binding ([4]; F/F0 10.9): yes | COc1ccc(/C=C/c2sc3ccccc3[n+]2C)c(OCCCC[N+](C)(C)C)c1
7 | – | yes | Kb ([2]; n = 4.0 bp per dye): 141000 M⁻¹ | CCN(CC)c1ccc(/C=C/c2cc[n+](C)cc2)c(OCCCC[N+](C)(C)C)c1
8 | yes | yes | Kb ([2]; n = 2.8 bp per dye): 70000 M⁻¹ | CCN(CC)c1ccc(/C=C/c2cc[n+](C)c3ccccc23)cc1
9 | – | – | binding ([4]; F/F0 54.8): yes | CCN(CC)c1ccc(/C=C/c2cc[n+](C)cc2)c(OCCC[N+](C)(C)C)c1
